According to US20070248581A1, “MGRA IS A REDOX REGULATOR OF ANTIBIOTIC SENSITIVITY AND VIRULENCE” (priority 2006, published 2007):
≈ marks a conversion by molar mass, not a printed value.

How the values were obtained:
[1] = tested on: S. aureus strain Newman (wild-type); experiment: MIC measurement, susceptibility of wild-type strain to fluoroquinolones and vancomycin; format: cell-based; conditions: Staphylococcus aureus
Procedure: (§1) S. aureus cells were serially diluted and an equal number of cells was spotted on a plate containing various concentrations of antibiotics. The S. aureus strain Newman (wild-type) and the mutant strains mgrA- and mgrH1- (knock outs) were tested.

[2] = tested on: S. aureus mgrA mutant (mgrA-) strain; experiment: MIC measurement, susceptibility of mgrA mutant strain to fluoroquinolones and vancomycin; format: cell-based; conditions: Staphylococcus aureus
Procedure: as §1

[3] = target: T1, MgrA (Staphylococcus aureus, UniProt Q99VT5); experiment: Alkylation of Cys12 in MgrA, DTNB assay for free thiol content; format: biochemical, S. aureus; set-up: His6 (N, cleaved yes); made in house; host or cells: E. coli BL21(DE3); conditions: 8 equivalents alkylator, 0.05 mM MgrA in water, pH 7.4, 1 h, r.t.
T1 sequence (Q99VT5 1-147): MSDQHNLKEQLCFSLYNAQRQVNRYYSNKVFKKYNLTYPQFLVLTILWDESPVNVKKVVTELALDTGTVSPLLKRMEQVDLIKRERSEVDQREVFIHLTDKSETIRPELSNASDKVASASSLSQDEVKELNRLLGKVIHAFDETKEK
Procedure: Alkylation of Cys12 in MgrA in vitro and in vivo. In a study to test potential alkylation of Cys12 in MgrA, the inventors examined several alkylators (1-7, Table 3). Eight equivalents of alkylators were used to react with 0.05 mM MgrA in water for 1 h at pH 7.4 at room temperature. Alkylation of Cys12 was determined by DTNB assay for free thiol content. […] Over 95% of cysteine thiols were alkylated by compound 7 after 1 h of reaction.

[4] = tested on: S. aureus Newman strain; experiment: Antibiotic sensitivity assay of S. aureus under oxidative stress or alkylator treatment; format: cell-based, Staphylococcus aureus
Procedure: The change of susceptibility levels of S. aureus strains toward ciprofloxacin and vancomycin under oxidative stress. The antibiotic resistance levels were tested in the absence (−H2O2) or presence (+H2O2) of 100 μM H2O2 by a plate sensitivity assay (FIG. 7A) and were also determined in the absence (−PQ) or presence (+PQ) of 25 μM paraquat by a 96-well-plate sensitivity assay (FIG. 7B). […] Empty bars are non-treated cultures. Results are mean ±s.d. from three independent experiments performed in duplicate.
Five strains were used to test oxidation responses in vivo: the wild-type Newman, the mgrA- mutant (knock out), the mgrA- mutant complemented with mgrA cloned in a plasmid pYJ335, the mgrA- mutant complemented with mgrAC12S in pYJ335, and the control mutant strain with pYJ335.
The susceptibility levels of all five strains toward CIP and VCM were also evaluated in the absence and presence of paraquat (PQ), another reagent known to cause oxidative stress in vivo (FIG. 7B).

[5] = tested on: norA gene; experiment: qRT-PCR of norA gene activation; format: cell-based, S. aureus; conditions: Newman strain
Procedure: Lanes 1 and 2, purified MgrA (2 μM) with a 40 bp oligonucleotide (0.4 pmol) containing the MgrA binding sequence on the sarV promoter region; lanes 3 and 4, MgrA was treated with 100 equivalents of phenyl vinyl sulfone (7) for 30 min (lane 3) or 60 min (lane 4) before mixed with DNA and applied for the shift assay. FIGS. 13A-B: The Cys-alkylator phenyl vinyl sulfone (PVS) has similar effects on MgrA as hydrogen peroxide. (FIG. 13A) Treatment of the Newman strain with PVS turned on resistance of the pathogen towards vancomycin. (FIG. 13B) The norA gene is repressed by MgrA; however, treatment of the Newman strain with either H2O2 or PVS can turn on this gene.
Activation of MgrA by phenyl vinyl sulfone (PVS) inside S. aureus was tested. […] To further confirm the effect of PVS, the inventors monitored activation of the norA gene known to be repressed by MgrA. […] The next challenge is to develop vinyl sulfones that have high affinity and specificity toward MgrA. Of course, a non-covalent modulator that can activate MgrA with high sensitivity and specificity via direct binding is also highly desirable.

[6] = target: T2, SarA (Staphylococcus aureus, UniProt P0C1U6); experiment: Oxidation of Cys9 in SarA by oxidants; format: biochemical, S. aureus; conditions: 100 equiv oxidant, 30 min, r.t.
T2 construct: made in house
T2 sequence (P0C1U6 1-124): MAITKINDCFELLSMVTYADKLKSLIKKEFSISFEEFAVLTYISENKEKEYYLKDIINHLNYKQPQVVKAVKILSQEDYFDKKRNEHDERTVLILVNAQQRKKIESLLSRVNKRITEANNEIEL
Description: SarA may adopt an oxidation sensing mechanism similar to MgrA. Cys9 in SarA might be oxidized by ROS or other reactive species which could lead to its dissociation from DNA and activation of the sarA regulon. To test this hypothesis, they cloned, expressed, and purified SarA.

[7] = target: T1, MgrA; conditions: 4 equiv oxidant, 10 min, r.t.
[8] = target: T3, MgrH1 (Staphylococcus aureus, UniProt Q2FVN3); conditions: 4 equiv oxidant, 10 min, r.t.
T3 sequence (Q2FVN3 1-148): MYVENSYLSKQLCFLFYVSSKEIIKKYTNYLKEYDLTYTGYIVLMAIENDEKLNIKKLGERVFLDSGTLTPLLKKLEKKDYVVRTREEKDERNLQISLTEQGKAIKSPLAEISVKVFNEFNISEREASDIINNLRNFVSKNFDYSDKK

[9] = tested on: splB gene; conditions: Newman strain, 0.4 mM, 30 min, qRT-PCR
Description: (FIG. 10C) Monitoring in vivo effects of SarA oxidation by qRT-PCR.
The inventors also monitored activation of a virulence gene splB in S. aureus.

[10] = target: T1, MgrA; experiment: Binding assays of MgrA with antibiotics; set-up: His6 (N, cleaved yes); made in house; host or cells: E. coli BL21(DE3); species or system S. aureus
Description: The regulation mechanism of MgrA. […] The inventors were very intrigued by what they had learned about MgrA: • i) MgrA is a DNA binding protein based on its structure and gel shift experiments. • ii) MgrA regulates S. aureus responses to fluoroquinolones (CIP and NOR, FIG. 1), vancomycin, and oxacillin (data not shown). […] Therefore, MgrA must sense some other host or environmental signals. The mechanistic issue for MgrA frustrated the inventors after they obtained the first crystal structure of this protein. Numerous binding assays were peformed to test a variety of hypotheses. A breakthrough came from a careful inspection of the MgrA structure and its sequence, when it was noticed that there is only one Cys residue present in the entire MgrA sequence, at position 12. This Cys residue, located in the N-terminal α1, is precisely in the dimerization domain (FIG. 4A) and seems to play an important role in orienting the MgrA dimer conformation. Each monomer presents its Cys12 to be recognized through hydrogen bonding to Ser113 and Tyr38 from the other monomer (FIG. 4B).

O=C(O)c1cn(C2CC2)c2cc(N3CCNCC3)c(F)cc2c1=O [CIP, ciprofloxacin]
MIC [1]: 0.35 µg/mL (≈ 1.06 µM)
MIC [2]: 0.7 µg/mL (≈ 2.11 µM)

CCOC(=O)CI [Compound 2]
Alkylation percentage (Cys12 of MgrA) [3]: >95%

O=C(CI)c1ccccc1 [Compound 3]
Alkylation percentage (Cys12 of MgrA) [3]: >95%

O=C1C=CC(=O)N1 [Compound 4]
Alkylation percentage (Cys12 of MgrA) [3]: >95%

c1ccc(OCC2CO2)cc1 (centres unmarked) [Compound 5]
Alkylation percentage (Cys12 of MgrA) [3]: 48%

c1ccc(CC2CO2)cc1 (centres unmarked) [Compound 6]
Alkylation percentage (Cys12 of MgrA) [3]: 59%

C=CS(=O)(=O)c1ccccc1 [Compound 7, phenyl vinyl sulfone]
Change of resistance to vancomycin ([4]; 25 μM PVS, Newman strain): enhanced resistance to vancomycin
Activation of norA gene [5]: activated norA as efficient as H2O2

OO [Compound H2O2, hydrogen peroxide]
Oxidation of SarA (Cys9) [6]: 15% oxidation at r.t.
Change of resistance toward CIP and VCM ([4]; 100 μM H2O2, Newman strain, plate sensitivity assay): increased resistance
Oxidation of MgrA (Cys12) [7]: 4 equiv, 10 min, 65%
Oxidation of MgrH1 (Cys13) [8]: 4 equiv, 10 min, 71%
Activation of splB gene [9]: activated

CCn1cc(C(=O)O)c(=O)c2cc(F)c(N3CCNCC3)cc21 [NOR, norfloxacin]
MIC [1]: 0.7 µg/mL (≈ 2.19 µM)
MIC [2]: 1.4 µg/mL (≈ 4.38 µM)

C[n+]1ccc(-c2cc[n+](C)cc2)cc1 [PQ, paraquat]
Change of resistance toward CIP and VCM ([4]; 25 μM paraquat, Newman strain, 96-well-plate sensitivity assay): increased antibiotic resistance

CN[C@H](CC(C)C)C(=O)N[C@H]1C(=O)N[C@@H](CC(N)=O)C(=O)N[C@H]2C(=O)N[C@H]3C(=O)N[C@H](C(=O)N[C@H](C(=O)O)c4cc(O)cc(O)c4-c4cc3ccc4O)[C@H](O)c3ccc(c(Cl)c3)Oc3cc2cc(c3O[C@@H]2O[C@H](CO)[C@@H](O)[C@H](O)[C@H]2O[C@H]2C[C@](C)(N)[C@H](O)[C@H](C)O2)Oc2ccc(cc2Cl)[C@H]1O [VCM, vancomycin]
MIC [1]: 1.2 µg/mL (≈ 0.828 µM)
MIC [2]: 2.4 µg/mL (≈ 1.66 µM)
Binding to MgrA [10]: does not bind
